Key:
[1] = system: transformed budding yeast AH22-BcOS1; test: Antifungal compound sensitivity test, transformed budding yeast AH22-BcOS1 (Example 3); type: cell-based, Saccharomyces cerevisiae; conditions: 30° C. 48 hours, absorbance at 600 nm relative to 0 ppm = 100
Procedure: The transformed budding yeast AH22-BcOS1 prepared in Example 2 was cultured while shaking at 30° C. for 18 hours in a Glu-Leu medium. As a control, the AH22 strain was similarly cultured while shaking at 30° C. for 18 hours in a Glu medium. The absorbance at 600 nm of each of the grown transformed budding yeasts in a cell suspension was measured, and a cell suspension diluted with sterilized distilled water to the absorbance of 0.1 was prepared. Further, a cell suspension in which the aforementioned cell suspension of the transformed budding yeast AH22-BcOS1 was diluted 200-fold with a Glu-Leu medium, and a cell suspension in which the aforementioned cell suspension of the AH22 strain was diluted 200-fold with a Glu medium were prepared. A solution in which each of Compounds (1) to (3) was dissolved in dimethylsulfoxide (DMSO) to the concentration of 60 ppm, a solution in which each of Compounds (4) and (5) was dissolved in dimethylsulfoxide (DMSO) to the concentration of 2000 ppm, and a solution in which each of Compounds (6) and (7) was dissolved in dimethylsulfoxide (DMSO) to the concentration of 20 ppm were prepared, and two microplates were prepared in which each 2.0 μL per well of the Compound solution and DMSO as a control were dispensed into two wells. In one microplate among them, each 200 μL of cell suspensions of the transformed budding yeast AH22-BcOS1 which had been prepared by dilution as described above was dispensed, and cultured by allowing to stand at 30° C. for 48 hours. In another microplate, each 200 μL of the cell suspensions of the control yeast AH22 strain which had been prepared by dilution as described above was dispensed, and cultured by allowing to stand at 30° C. for 48 hours. After culturing, the absorbance at 600 nm of each well was measured with a microplate reader.
Degree of growths of both of the transformed budding yeasts cultured under the presence of each of Compound (1) to (7) and budding yeast as a control therefor are shown in Table 1. Degree of growths of both of the transformed budding yeasts and budding yeasts as a control therefor are expressed by a relative value in percentage, letting the absorbance at 600 nm in a well having the concentration of the aforementioned Compound of 0 ppm to be 100. It was confirmed that an inhibiting degree of growth of TM182-BcOS1 by each test substance was grater than an inhibiting degree of growth of AH22-BcOS1 by each test substance, and the TM182-BcOS1 was a transformed cell with the enhanced sensitivity to an antifungal compound as compared with AH22-BcOS1.

[2] = system: AH22 strain; test: Antifungal compound sensitivity test, control yeast AH22 strain (Example 19); type: cell-based, Saccharomyces cerevisiae; conditions: 30° C. 24.8 hours, relative value in percentage
Procedure: The transformed budding yeast AH22-RsOS1 prepared in Example 18 was cultured while shaking at 30° C. for 18 hours in a Glu-Leu medium. As a control, the AH22 strain was similarly cultured while shaking at 30° C. for 18 hours in a Glu medium. The absorbance at 600 nm of each grown transformed budding yeast in a cell suspension was measured, and cell suspension diluted with sterilized distilled water to the absorbance of 0.1 was prepared. Further, a cell suspension in which the aforementioned cell suspension of the transformed budding yeast AH22-RsOS1 was diluted 50-fold with a Glu-Leu medium, and a cell suspension in which the aforementioned cell suspension of the AH22 strain was diluted 50-fold with a Glu medium were prepared.
A solution in which each of Compounds (1) to (5) was dissolved in dimethylsulfoxide (DMSO) to the concentration of 600 ppm, and a solution in which Compounds (6) and (7) was dissolved in dimethylsulfoxide (DMSO) to the concentration of 60 ppm were prepared, and two microplates were prepared in which each 1.0 μL per well of the Compound solution and DMSO as a control were dispensed. In one microplate among them, each 100 μL of cell suspensions of the transformed budding yeast AH22-RsOS1 which had been prepared by dilution as described above was dispensed, and cultured by allowing to stand at 30° C. for 29.8 hours. In another microplate, each 100 μL of cell suspensions of the control yeast AH22 strain which had been prepared by dilution as described above was dispensed, and cultured by allowing to stand at 30° C. for 24.8 hours. After culturing, the absorbance at 600 nm of each well was measured with a microplate reader.
A degree of growth of the transformed budding yeast is expressed as a relative value in percentage, letting the absorbance at 600 nm at the concentration of the Compound of 0 ppm to be 100. It was confirmed that an inhibiting degree of growth of the transformed budding yeast TM182-RsOS1 by each test substance was grater than an inhibiting degree of growth of the transformed budding yeast AH22-RsOS1 by each test substance, and the transformed budding yeast TM182-RsOS1 was a transformed cell with the enhanced sensitivity to an antifungal compound as compared with the transformed budding yeast AH22-RsOS1.

Row | SMILES | Degree of growth of budding yeast (%) AH22-BcOS1 Glu-Leu medium ([1]; final concentration 0.6 ppm) [%] | Degree of growth of budding yeast AH22 Glu medium ([2]; final concentration 6.0 ppm) [%] | Degree of growth of budding yeast (%) AH22-BcOS1 Glu-Leu medium ([1]; final concentration 20 ppm) [%] | Degree of growth of budding yeast (%) AH22-BcOS1 Glu-Leu medium ([1]; final concentration 0.2 ppm) [%] | Degree of growth of budding yeast AH22 Glu medium ([2]; final concentration 0.6 ppm) [%]
1 | CC12CC1(C)C(=O)N(c1cc(Cl)cc(Cl)c1)C2=O (centres unmarked) [Compound (1), Procymidone] | 90 | 88 | – | – | –
2 | CC(C)NC(=O)N1CC(=O)N(c2cc(Cl)cc(Cl)c2)C1=O [Compound (2), Iprodione] | 92 | 92 | – | – | –
3 | C=CC1(C)OC(=O)N(c2cc(Cl)cc(Cl)c2)C1=O (centres unmarked) [Compound (3), Vinclozolin] | 93 | 82 | – | – | –
4 | O=[N+]([O-])c1c(Cl)c(Cl)c(Cl)c(Cl)c1Cl [Compound (4), Quintozene] | – | 83 | 45 | – | –
5 | COP(=S)(OC)Oc1c(Cl)cc(C)cc1Cl [Compound (5), Tolclofos-methyl] | – | 78 | 79 | – | –
6 | N#Cc1c[nH]cc1-c1cccc2c1OC(F)(F)O2 [Compound (6), Fludioxonil] | – | – | – | 81 | 79
7 | N#Cc1c[nH]cc1-c1cccc(Cl)c1Cl [Compound (7), Fenpiclonil] | – | – | – | 94 | 85

Reference: patent publication US7452688B2, “Transformed cell with enhanced sensitivity to antifungal compound and use thereof” (Sumitomo Chemical Company, Limited, priority 2002, dated 2008)
